Biological target: T1, RORc ligand binding domain (Homo sapiens, UniProt P51449)
T1 construct: host or cells: E. coli
T1 sequence (P51449 269-508 limits assumed): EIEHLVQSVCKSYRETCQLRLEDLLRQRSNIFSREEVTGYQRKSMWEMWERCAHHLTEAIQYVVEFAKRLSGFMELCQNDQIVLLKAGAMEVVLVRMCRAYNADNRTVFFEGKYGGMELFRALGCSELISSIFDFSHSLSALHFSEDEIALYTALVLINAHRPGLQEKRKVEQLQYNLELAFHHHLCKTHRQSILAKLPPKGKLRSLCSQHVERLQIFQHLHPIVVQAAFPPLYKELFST
Experiment: In Vitro RORc Ligand Binding Assay (25-[3H]hydroxycholesterol radioligand filtration)
Settings: In Vitro RORc Ligand Binding Assay; Table 4; read-out: RORc IC50

`C[C@H]1CCC(c2ccccc2)S(=O)(=O)N1Cc1ccc(C(=O)N2CCOC(C(N)=O)C2)cc1` (stereo partly drawn) [Example 298, 4-[4-((3S)-Methyl-1,1-dioxo-6-phenyl-[1,2]thiazinan-2-ylmethyl)-benzoyl]-morpholine-2-carboxylic acid amide] and `CNC(=O)C1CN(C(=O)c2ccc(CN3[C@@H](C)CCC(c4ccccc4)S3(=O)=O)cc2)CCO1` (stereo partly drawn) [Example 299, 4-[4-((3S)-Methyl-1,1-dioxo-6-phenyl-[1,2]thiazinan-2-ylmethyl)-benzoyl]-morpholine-2-carboxylic acid methylamide] are within 1.5-fold of each other in IC50: 4720 nM for the first, 4930 nM for the second.

First: C=C1CCC(c2ccccc2)S(=O)(=O)N(Cc2ccc(N3CCN(C(C)=O)CC3)cc2F)C1 (stereo not drawn) [Example 348, 1-{4-[3-Fluoro-4-(4-methylene-1,1-dioxo-7-phenyl-[1,2]thiazepan-2-ylmethyl)-phenyl]-piperazin-1-yl}-ethanone]
Second: CC(=O)N1CCN(c2ccc(CN3[C@H](C)CC(c4ccccc4)S3(=O)=O)c(F)c2)CC1 (stereo partly drawn) [Example 349, 1-{4-[3-Fluoro-4-((3R)-methyl-1,1-dioxo-5-phenyl-isothiazolidin-2-ylmethyl)-phenyl]-piperazin-1-yl}-ethanone]
The IC50 of the first is 6.3-fold lower: 49 nM for the first, 310 nM for the second.

First: C[C@H]1CCC(c2ccccc2)S(=O)(=O)N1Cc1ccc(C(=O)N2CCC3(COC3)C2)cc1 (stereo partly drawn) [Example 354, [4-((3S)-Methyl-1,1-dioxo-6-phenyl-[1,2]thiazinan-2-ylmethyl)-phenyl]-(2-oxa-6-aza-spiro[3.4]oct-6-yl)-methanone]
Second: C[C@H]1CCC(c2ccccc2)S(=O)(=O)N1Cc1ccc(C(=O)N2CCC3(CCOC3)C2)cc1 (stereo partly drawn) [Example 358, [4-((3S)-Methyl-1,1-dioxo-6-phenyl-[1,2]thiazinan-2-ylmethyl)-phenyl]-(2-oxa-7-aza-spiro[4.4]non-7-yl)-methanone]
The IC50 of the first is 2.5-fold higher: 3010 nM for the first, 1220 nM for the second. The second is the more potent here.

Compared with `C[C@H]1CCC(c2ccccc2)S(=O)(=O)N1Cc1ccc(C(=O)N2C3CCC2C(C(N)=O)C3)cc1` (stereo partly drawn) [Example 355, 7-[4-((3S)-Methyl-1,1-dioxo-6-phenyl-[1,2]thiazinan-2-ylmethyl)-benzoyl]-7-aza-bicyclo[2.2.1]heptane-2-carboxylic acid amide], `C[C@H]1CCC(c2ccccc2)S(=O)(=O)N1Cc1ccc(C(=O)N2C3CNC(=O)C2C3)cc1` (stereo partly drawn) [Example 360, 6-[4-((3S)-Methyl-1,1-dioxo-6-phenyl-[1,2]thiazinan-2-ylmethyl)-benzoyl]-3,6-diaza-bicyclo[3.1.1]heptan-2-one] is 6.8-fold higher in IC50: 510 nM for the first, 3450 nM for the second.

`C[C@H]1CCC(c2ccccc2)S(=O)(=O)N1Cc1ccc(C(=O)N2CC3(CCCOC3)C2)cc1` (stereo partly drawn) [Example 356, [4-((3S)-Methyl-1,1-dioxo-6-phenyl-[1,2]thiazinan-2-ylmethyl)-phenyl]-(6-oxa-2-aza-spiro[3.5]non-2-yl)-methanone] and `C[C@H]1CCC(c2ccccc2)S(=O)(=O)N1Cc1ccc(C(=O)N2CC3(CCOC3)C2)cc1` (stereo partly drawn) [Example 372, [4-((3S)-Methyl-1,1-dioxo-6-phenyl-[1,2]thiazinan-2-ylmethyl)-phenyl]-(6-oxa-2-aza-spiro[3.4]oct-2-yl)-methanone] are within 1.5-fold of each other in IC50: 3170 nM for the first, 3040 nM for the second.

Going from `C[C@H]1CCC(c2ccccc2)S(=O)(=O)N1Cc1ccc(C(=O)N2CCCC2CCNS(C)(=O)=O)cc1` (stereo partly drawn) [Example 357, N-(2-{1-[4-((3S)-Methyl-1,1-dioxo-6-phenyl-[1,2]thiazinan-2-ylmethyl)-benzoyl]-pyrrolidin-2-yl}-ethyl)-methanesulfonamide] to `C[C@H]1CCC(c2ccccc2)S(=O)(=O)N1Cc1ccc(C(=O)NCCC2CCCN(S(C)(=O)=O)C2)cc1` (stereo partly drawn) [Example 371, N-[2-(1-Methanesulfonyl-piperidin-3-yl)-ethyl]-4-((3S)-methyl-1,1-dioxo-6-phenyl-[1,2]thiazinan-2-ylmethyl)-benzamide], the IC50 rises from 108 nM to 3630 nM (34-fold).

`CC(=O)NCCC1CCN(C(=O)c2ccc(CN3[C@@H](C)CCC(c4ccccc4)S3(=O)=O)cc2)CC1` (stereo partly drawn) [Example 359, N-(2-{1-[4-((3S)-Methyl-1,1-dioxo-6-phenyl-[1,2]thiazinan-2-ylmethyl)-benzoyl]-piperidin-4-yl}-ethyl)-acetamide] and `C[C@H]1CCC(c2ccccc2)S(=O)(=O)N1Cc1ccc(C(=O)N2CCN(C)C(=O)C2)cc1` (stereo partly drawn) [Example 363, 1-Methyl-4-[4-((3S)-methyl-1,1-dioxo-6-phenyl-[1,2]thiazinan-2-ylmethyl)-benzoyl]-piperazin-2-one] are within 1.5-fold of each other in IC50: 2030 nM for the first, 2430 nM for the second.

Going from `C[C@H]1CCC(c2ccccc2)S(=O)(=O)N1Cc1ccc(C(=O)N2CCOC3(CCOC3)C2)cc1` (stereo partly drawn) [Example 361, (2,6-Dioxa-9-aza-spiro[4.5]dec-9-yl)-[4-((3S)-methyl-1,1-dioxo-6-phenyl-[1,2]thiaznan-2-ylmethyl)-phenyl]-methanone] to `C[C@H]1CCC(c2ccccc2)S(=O)(=O)N1Cc1ccc(C(=O)N2CC3(CCOCC3)C2)cc1` (stereo partly drawn) [Example 370, [4-((3S)-Methyl-1,1-dioxo-6-phenyl-[1,2]thiazinan-2-ylmethyl)-phenyl]-(7-oxa-2-aza-spiro[3.5]non-2-yl)-methanone], the IC50 rises from 641 nM to 1060 nM (1.7-fold). The first is the more potent here.

Going from `C[C@H]1CCC(c2ccccc2)S(=O)(=O)N1Cc1ccc(C(=O)N2CCC3(CC2)COC3)cc1` (stereo partly drawn) [Example 362, [4-((3S)-Methyl-1,1-dioxo-6-phenyl-[1,2]thiazinan-2-ylmethyl)-phenyl]-(2-oxa-7-aza-spiro[3.5]non-7-yl)-methanone] to `C[C@H]1CCC(c2ccccc2)S(=O)(=O)N1Cc1ccc(C(=O)N2CC3COCC3C2)cc1` (stereo partly drawn) [Example 364, [4-((3S)-Methyl-1,1-dioxo-6-phenyl-[1,2]thiazinan-2-ylmethyl)-phenyl]-(tetrahydro-furo[3,4-c]pyrrol-5-yl)-methanone], the IC50 rises from 903 nM to 2920 nM (3.2-fold). The first is the more potent here.

First: C[C@H]1CCC(c2ccccc2)S(=O)(=O)N1Cc1ccc(C(=O)N2CCc3cn[nH]c3C2)cc1 (stereo partly drawn) [Example 365, [4-((3S)-Methyl-1,1-dioxo-6-phenyl-[1,2]thiazinan-2-ylmethyl)-phenyl]-(1,4,5,7-tetrahydro-pyrazolo[3,4-c]pyridin-6-yl)-methanone]
Second: C[C@H]1CCC(c2ccccc2)S(=O)(=O)N1Cc1ccc(C(=O)N2CCn3nccc3C2)cc1 (stereo partly drawn) [Example 373, (6,7-Dihydro-4H-pyrazolo[1,5-a]pyrazin-5-yl)-[4-((3S)-methyl-1,1-dioxo-6-phenyl-[1,2]thiazinan-2-ylmethyl)-phenyl]-methanone]
The IC50 of the first is 3.2-fold lower: 1350 nM for the first, 4360 nM for the second.

Going from `CC(=O)N1CC2(C1)CN(C(=O)c1ccc(CN3[C@@H](C)CCC(c4ccccc4)S3(=O)=O)cc1)C2` (stereo partly drawn) [Example 366, 1-{6-[4-((3S)-Methyl-1,1-dioxo-6-phenyl-[1,2]thiazinan-2-ylmethyl)-benzoyl]-2,6-diaza-spiro[3.3]hept-2-yl}-ethanone] to `CC(=O)N1CC2CC2(NC(=O)c2ccc(CN3[C@@H](C)CCC(c4ccccc4)S3(=O)=O)cc2)C1` (stereo partly drawn) [Example 367, N-(3-Acetyl-3-aza-bicyclo[3.1.0]hex-1-yl)-4-((3S)-methyl-1,1-dioxo-6-phenyl-[1,2]thiazinan-2-ylmethyl)-benzamide], the IC50 falls from 5280 nM to 2270 nM (2.3-fold). The second is the more potent here.

`CC1CN(C(=O)c2ccc(CN3[C@@H](C)CCC(c4ccccc4)S3(=O)=O)cc2)CC(=O)N1` (stereo partly drawn) [Example 368, 6-Methyl-4-[4-((3S)-methyl-1,1-dioxo-6-phenyl-[1,2]thiazinan-2-ylmethyl)-benzoyl]-piperazin-2-one] and `C[C@H]1CCC(c2ccccc2)S(=O)(=O)N1Cc1ccc(C(=O)NC2(C#N)CCC2)cc1` (stereo partly drawn) [Example 369, N-(1-Cyano-cyclobutyl)-4-((3S)-methyl-1,1-dioxo-6-phenyl-[1,2]thiazinan-2-ylmethyl)-benzamide] are within 1.5-fold of each other in IC50: 2360 nM for the first, 3480 nM for the second.

Compared with `Cc1ncc2n1CCN(c1ccc(CN3[C@@H](C)CCC(c4ccccc4)S3(=O)=O)c(F)c1)C2` (stereo partly drawn) [Example 374, 7-[3-Fluoro-4-((3S)-methyl-1,1-dioxo-6-phenyl-[1,2]thiazinan-2-ylmethyl)-phenyl]-3-methyl-5,6,7,8-tetrahydro-imidazo[1,5-a]pyrazine], `CC(=O)N1CCN(c2ccc(CN3[C@@H](C)CCC(c4ccccc4)S3(=O)=O)c(F)c2)C[C@@H]1C#N` (stereo partly drawn) [Example 376, (R)-1-Acetyl-4-[3-fluoro-4-((3S)-methyl-1,1-dioxo-6-phenyl-[1,2]thiazinan-2-ylmethyl)-phenyl]-piperazine-2-carbonitrile] is 2.1-fold lower in IC50: 166 nM for the first, 78 nM for the second. The second is the more potent here.

First: CC(=O)N1CCN(c2ccc(CN3[C@@H](C)CCC(c4ccccc4)S3(=O)=O)c(F)c2)C[C@@H]1C(N)=O (stereo partly drawn) [Example 375, (R)-1-Acetyl-4-[3-fluoro-4-((3S)-methyl-1,1-dioxo-6-phenyl-[1,2]thiazinan-2-ylmethyl)-phenyl]-piperazine-2-carboxylic acid amide]
Second: CC(=O)N1CCN(c2ccc(CN3[C@@H](C)CCC(c4ccccc4)S3(=O)=O)c(F)c2)C[C@H]1C(=O)O (stereo partly drawn) [Example 377, (S)-1-Acetyl-4-[3-fluoro-4-((3S)-methyl-1,1-dioxo-6-phenyl-[1,2]thiazinan-2-ylmethyl)-phenyl]-piperazine-2-carboxylic acid]
The IC50 of the first is 8.7-fold lower: 156 nM for the first, 1360 nM for the second. The first is the more potent here.

Going from `CC(=O)N1CCN(c2ccc(CN3[C@@H](C)CCC(c4ccccc4)S3(=O)=O)c(F)c2)C[C@H]1CO` (stereo partly drawn) [Example 378, 1-{(S)-4-[3-Fluoro-4-((3S)-methyl-1,1-dioxo-6-phenyl-[1,2]thiazinan-2-ylmethyl)-phenyl]-2-hydroxymethyl-piperazin-1-yl}-ethanone] to `CC(=O)N1CCN(c2ccc(CN3[C@@H](C)CCC(c4ccccc4)S3(=O)=O)c(F)c2)C[C@H]1C(=O)N(C)C` (stereo partly drawn) [Example 379, (S)-1-Acetyl-4-[3-fluoro-4-((3S)-methyl-1,1-dioxo-6-phenyl-[1,2]thiazinan-2-ylmethyl)-phenyl]-piperazine-2-carboxylic acid dimethylamide], the IC50 rises from 61 nM to 882 nM (14-fold). The first is the more potent here.

Source: patent US9115101B2 (Genentech, Inc., priority 2012, dated 2015)
